Data on 17 compounds can be found in US11999727B2 (Tango Therapeutics, Inc., priority 2020, dated 2024).

In assay [1] the target is T1, PRMT5 (Homo sapiens, UniProt O14744).
T1 construct: purchased Viva (custom protein)
Description: PRMT5 biochemical IC50 assay with SAM as cofactor. The conditions noted are these: PRMT5, SAM as cofactor; read-out: SAM IC50.

Assay [2] concerns the target T1, PRMT5. Nature of the assay: PRMT5 biochemical IC50 assay with no cofactor. The conditions noted are these: PRMT5, no cofactor; read-out: No Cofactor/rel IC50. The source says: Table 1 indicates IC50 values (μM) against PRMT5 for exemplary compounds in the presence of SAM as cofactor, with no cofactor, and with MTA as cofactor, respectively (columns 4-6). […] Ki values can be calculated from the IC50 values as described in the Examples section. As detailed in the Examples section, for the assay performed in the presence of SAM, IC50=Ki×1.5 (Ki=IC50/1.5).

Assay [3] concerns the target T1, PRMT5. Nature of the assay: PRMT5 biochemical IC50 assay with MTA as cofactor. The conditions noted are these: PRMT5, MTA as cofactor; read-out: MTA IC50.
Assay [4] concerns HAP1 MTAP-intact cell line. Nature of the assay: SDMA in-cell western assay, HAP1 MTAP-intact. The assay is classed as cell-based. The conditions noted are these: Homo sapiens, HAP1, SDMA in-cell western, HAP1 MTAP-intact; read-out: MTAP HAP1 intact IC50. Summed up: (§1)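 Compounds were tested in HAP1 cells differing only in MTAP status (endogenous expression versus null). Cellular SDMA levels were then measured by in-cell western, giving an IC50 in each background.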

The test system of assay [5] is HAP1 MTAP-deleted cell line. Nature of the assay: SDMA in-cell western assay, HAP1 MTAP-deleted. The conditions noted are these: for IC50: Homo sapiens, HAP1, SDMA in-cell western, HAP1 MTAP-deleted, read-out: HAP1 MTAP deleted IC50; for MTAP intact/deleted ratio: IC50 ratio HAP1 MTAP-intact / HAP1 MTAP-deleted, SDMA in-cell western. The assay is classed as cell-based. Summed up:
as §1

Assay [6] concerns HAP1 MTAP-deleted cell line. Description: Viability assay, MTAP-deleted cell line. As to conditions: Homo sapiens, HAP1, viability assay, HAP1 MTAP-deleted; read-out: HAP1 MTAP deleted viability. Type of assay: cell-based. From the text:
Table 1 additionally indicates IC50 values in a viability assay for the MTAP-deleted cell line (column 10), indicating the effect of treatment with compound on cell survival.

T1 sequence (O14744 whole entry): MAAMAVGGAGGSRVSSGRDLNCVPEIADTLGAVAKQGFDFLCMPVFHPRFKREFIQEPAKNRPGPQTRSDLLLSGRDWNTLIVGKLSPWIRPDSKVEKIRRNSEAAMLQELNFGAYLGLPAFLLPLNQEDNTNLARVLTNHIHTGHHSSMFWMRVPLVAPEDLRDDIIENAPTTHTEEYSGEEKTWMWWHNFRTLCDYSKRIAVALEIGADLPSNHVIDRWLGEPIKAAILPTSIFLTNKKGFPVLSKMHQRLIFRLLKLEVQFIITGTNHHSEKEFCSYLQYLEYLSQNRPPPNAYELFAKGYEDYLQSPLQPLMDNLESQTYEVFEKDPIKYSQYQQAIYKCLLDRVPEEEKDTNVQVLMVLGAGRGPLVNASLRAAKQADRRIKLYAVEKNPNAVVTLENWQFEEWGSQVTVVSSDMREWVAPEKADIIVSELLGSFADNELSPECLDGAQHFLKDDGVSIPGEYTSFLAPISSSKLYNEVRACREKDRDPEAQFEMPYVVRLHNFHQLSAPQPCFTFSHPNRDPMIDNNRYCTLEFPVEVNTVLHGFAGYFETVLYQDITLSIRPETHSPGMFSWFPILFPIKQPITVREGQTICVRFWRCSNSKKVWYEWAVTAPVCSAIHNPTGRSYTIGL
T1 sequence (Q9BQA1 whole entry partner): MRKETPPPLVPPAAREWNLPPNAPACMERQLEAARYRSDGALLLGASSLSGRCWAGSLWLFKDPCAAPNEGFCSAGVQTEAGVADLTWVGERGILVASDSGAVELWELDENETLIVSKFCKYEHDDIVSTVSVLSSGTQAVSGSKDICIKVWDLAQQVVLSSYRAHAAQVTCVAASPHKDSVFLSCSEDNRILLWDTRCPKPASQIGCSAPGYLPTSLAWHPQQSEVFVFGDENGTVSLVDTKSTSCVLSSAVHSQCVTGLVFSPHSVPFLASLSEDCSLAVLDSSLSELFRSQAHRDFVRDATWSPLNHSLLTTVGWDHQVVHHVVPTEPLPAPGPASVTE

For the compound `C[C@H]1CC[C@H](c2ccc(-c3cncs3)cc2)N(C(=O)C(=O)Nc2cncc(C(N)=O)c2)C1` (single isomer, unassigned) [Compound 821, 5-(2-(5-methyl-2-(4-(thiazol-5-yl)phenyl)piperidin-1-yl)-2-oxoacetamido)nicotinamide], the IC50 is 50 to 500 nM at PRMT5 [1]; 50 to 500 nM at PRMT5 [2]; less than 50 nM on PRMT5 [3]; more than 1000 nM in assay [4]; less than 100 nM in assay [5]; 1000 to 10000 nM in assay [6]. Also, the MTAP intact/deleted ratio entry in assay [5] is “A (an IC50 ratio greater than or equal to 10 fold)”.

Regarding `CCc1cc(NC(=O)C(=O)N2C[C@@H](C)CC[C@@H]2c2ccc(-c3nccs3)cc2)cnc1N` (single isomer, unassigned) [Compound 822], the IC50 at PRMT5 [1] was more than 500 nM; at PRMT5 [2], more than 500 nM; on PRMT5 [3], more than 500 nM; in assay [4], more than 1000 nM; in assay [5], more than 1000 nM; in assay [6], more than 10000 nM. Further, the MTAP intact/deleted ratio result in assay [5] is “C (an IC50 ratio of less than 3 fold)”.

Regarding `Cc1cc(NC(=O)C(=O)N2C[C@H](C)CC[C@H]2c2ccc(C(N)=O)s2)cnc1N` (single isomer, unassigned) [Compound 823], the IC50 on PRMT5 [1] was more than 500 nM; on PRMT5 [2], more than 500 nM; on PRMT5 [3], more than 500 nM; in assay [4], more than 1000 nM; in assay [5], more than 1000 nM; in assay [6], more than 10000 nM. For the same compound, the MTAP intact/deleted ratio entry in assay [5] is on record as “C (an IC50 ratio of less than 3 fold)”.

As to `Cc1cc(NC(=O)C(=O)N2C[C@@H](C)CC[C@@H]2c2cc3[nH]ncc3s2)cnc1N` (single isomer, unassigned) [Compound 824], the IC50 was 50 to 500 nM at PRMT5 [1]; less than 50 nM at PRMT5 [2]; less than 50 nM at PRMT5 [3]; 100 to 1000 nM in assay [4]; less than 100 nM in assay [5]; less than 1000 nM in assay [6]. For the same compound, in assay [5], the MTAP intact/deleted ratio entry is reported as “A (an IC50 ratio greater than or equal to 10 fold)”.

For `CCc1cc(NC(=O)C(=O)N2C[C@@H](C)CC[C@@H]2c2ccc3[nH]c(=O)ccc3c2)cnc1N` (single isomer, unassigned) [Compound 825], the IC50 is 50 to 500 nM on PRMT5 [1]; less than 50 nM on PRMT5 [2]; less than 50 nM on PRMT5 [3]; 100 to 1000 nM in assay [4]; less than 100 nM in assay [5]; less than 1000 nM in assay [6]. In addition, the MTAP intact/deleted ratio entry in assay [5] was “A (an IC50 ratio greater than or equal to 10 fold)”.

In the case of `Cc1cc(NC(=O)C(=O)N2C[C@H](C)CC[C@H]2c2cc3[nH]ncc3s2)cnc1N` (single isomer, unassigned) [Compound 826], the IC50 on PRMT5 [1] was more than 500 nM; at PRMT5 [2] it was more than 500 nM; on PRMT5 [3] it was 50 to 500 nM; in assay [4], more than 1000 nM; in assay [5], more than 1000 nM; in assay [6] it was more than 10000 nM. The MTAP intact/deleted ratio result in assay [5] was “B (an IC50 ratio greater than or equal to 3 fold but lower than 10 fold)”.

For the compound `CCc1cc(NC(=O)C(=O)N2C[C@@H](C)CC[C@@H]2c2ccc(-c3cncs3)cc2)cnc1N` (single isomer, unassigned) [Compound 827, N-(6-amino-5-ethylpyridin-3-yl)-2-(5-methyl-2-(4-(thiazol-5-yl)phenyl)piperidin-1-yl)-2-oxoacetamide], the IC50 is more than 500 nM on PRMT5 [1]; more than 500 nM on PRMT5 [2]; 50 to 500 nM at PRMT5 [3]; more than 1000 nM in assay [4]; 100 to 1000 nM in assay [5]; more than 10000 nM in assay [6]. Moreover, in assay [5], the MTAP intact/deleted ratio entry is “A (an IC50 ratio greater than or equal to 10 fold)”.

Turning to `CNC(=O)c1ccc([C@@H]2CC[C@@H](C)CN2C(=O)C(=O)Nc2cncc(C(N)=O)c2)s1` (single isomer, unassigned) [Compound 829], the IC50 at PRMT5 [1] was 50 to 500 nM; on PRMT5 [2], less than 50 nM; on PRMT5 [3] it was less than 50 nM; in assay [4], more than 1000 nM; in assay [5], less than 100 nM; in assay [6], 1000 to 10000 nM. The MTAP intact/deleted ratio result in assay [5] is on record as “A (an IC50 ratio greater than or equal to 10 fold)”.

`COc1ncc(NC(=O)C(=O)N2C[C@H](C)CC[C@H]2c2ccc(-c3cncs3)cc2)cc1C(N)=O` (single isomer, unassigned) [Compound 830, 2-methoxy-5-(2-(5-methyl-2-(4-(thiazol-5-yl)phenyl)piperidin-1-yl)-2-oxoacetamido)nicotinamide]: the IC50 at PRMT5 [1] is 50 to 500 nM; on PRMT5 [2], 50 to 500 nM; at PRMT5 [3], less than 50 nM; in assay [4], more than 1000 nM; in assay [5] it was less than 100 nM; in assay [6], less than 1000 nM. In assay [5], the MTAP intact/deleted ratio entry is reported as “A (an IC50 ratio greater than or equal to 10 fold)”.

For `CNC(=O)c1ccc([C@H]2CC[C@H](C)CN2C(=O)C(=O)Nc2cnc(OC)c(C(N)=O)c2)s1` (single isomer, unassigned) [Compound 833], the IC50 at PRMT5 [1] was 50 to 500 nM; at PRMT5 [2] it was 50 to 500 nM; on PRMT5 [3], less than 50 nM; in assay [4], 100 to 1000 nM; in assay [5] it was less than 100 nM; in assay [6], less than 1000 nM. Further, the MTAP intact/deleted ratio entry in assay [5] is given as “A (an IC50 ratio greater than or equal to 10 fold)”.

As to `C[C@@H]1CC[C@@H](c2cc(F)c(F)c(Cl)c2)N(C(=O)C(=O)Nc2cncc(C(N)=O)c2)C1` (single isomer, unassigned) [Compound 834], the IC50 on PRMT5 [1] is 50 to 500 nM; at PRMT5 [2], 50 to 500 nM; on PRMT5 [3], less than 50 nM; in assay [4], more than 1000 nM; in assay [5], 100 to 1000 nM; in assay [6], 1000 to 10000 nM. Also, the MTAP intact/deleted ratio result in assay [5] is “A (an IC50 ratio greater than or equal to 10 fold)”.

`CCc1cc(NC(=O)C(=O)N2C[C@H](C)CC[C@H]2c2ccc(C(=O)NC)s2)cnc1N` (single isomer, unassigned) [Compound 835]: the IC50 on PRMT5 [1] was more than 500 nM; on PRMT5 [2] it was more than 500 nM; at PRMT5 [3], more than 500 nM; in assay [4], more than 1000 nM; in assay [5], more than 1000 nM; in assay [6], more than 10000 nM. Moreover, the MTAP intact/deleted ratio result in assay [5] is “C (an IC50 ratio of less than 3 fold)”.

With `COc1ncc(NC(=O)C(=O)N2C[C@@H](C)CC[C@@H]2c2ccc(C(N)=O)s2)cc1C(N)=O` (single isomer, unassigned) [Compound 837], the IC50 on PRMT5 [1] was 50 to 500 nM; at PRMT5 [2], less than 50 nM; on PRMT5 [3], less than 50 nM; in assay [4], more than 1000 nM; in assay [5], less than 100 nM; in assay [6], less than 1000 nM. Moreover, in assay [5], the MTAP intact/deleted ratio result is recorded as “A (an IC50 ratio greater than or equal to 10 fold)”.

Consider `CCc1cc(NC(=O)C(=O)N2C[C@H](C)CC[C@H]2c2ccc(C(N)=O)s2)cnc1N` (single isomer, unassigned) [Compound 838], for which the IC50 at PRMT5 [1] was 50 to 500 nM; at PRMT5 [2], less than 50 nM; on PRMT5 [3], less than 50 nM; in assay [4], 100 to 1000 nM; in assay [5], less than 100 nM; in assay [6], less than 1000 nM. Also, in assay [5], the MTAP intact/deleted ratio entry is given as “A (an IC50 ratio greater than or equal to 10 fold)”.

As for `CNC(=O)c1ccc([C@H]2CC[C@H](C)CN2C(=O)C(=O)Nc2cncc(C(N)=O)c2)s1` (single isomer, unassigned) [Compound 839], the IC50 was more than 500 nM at PRMT5 [1]; more than 500 nM at PRMT5 [2]; more than 500 nM at PRMT5 [3]; more than 1000 nM in assay [4]; more than 1000 nM in assay [5]; more than 10000 nM in assay [6]. Further, the MTAP intact/deleted ratio result in assay [5] is “B (an IC50 ratio greater than or equal to 3 fold but lower than 10 fold)”.

With `CCc1cc(NC(=O)C(=O)N2C[C@@H](C)CC[C@@H]2c2ccc(C(=O)NC)s2)cnc1N` (single isomer, unassigned) [Compound 840], the IC50 is 50 to 500 nM at PRMT5 [1]; less than 50 nM on PRMT5 [2]; less than 50 nM at PRMT5 [3]; 100 to 1000 nM in assay [4]; less than 100 nM in assay [5]; less than 1000 nM in assay [6]. The MTAP intact/deleted ratio result in assay [5] is “A (an IC50 ratio greater than or equal to 10 fold)”.

Take `CCc1cc(NC(=O)C(=O)N2C[C@H](C)CC[C@H]2c2ccc(-c3cncs3)cc2)cnc1N` (single isomer, unassigned) [Compound 841, N-(6-amino-5-ethylpyridin-3-yl)-2-(5-methyl-2-(4-(thiazol-5-yl)phenyl)piperidin-1-yl)-2-oxoacetamide]: the IC50 was 50 to 500 nM at PRMT5 [1]; less than 50 nM on PRMT5 [2]; less than 50 nM on PRMT5 [3]; 100 to 1000 nM in assay [4]; less than 100 nM in assay [5]; less than 1000 nM in assay [6]. Also, in assay [5], the MTAP intact/deleted ratio result is “A (an IC50 ratio greater than or equal to 10 fold)”.
